# From patent US20240294495A1, “COMPOUNDS THAT MEDIATE PROTEIN DEGRADATION AND METHODS OF USE THEREOF” (Monte Rosa Therapeutics, Inc., priority 2021, published 2024)
# How the values were obtained:
# [1] = target: CRBN-DDB1 (Homo sapiens, UniProt Q96SW2); assay: Compound binding to CRBN by HTRF assay; conditions: CRBN-DDB1 2.5 nM, Cy5-Thalidomide 100 nM probe, 30 min incubation; read-out: HTRF Class (Cereblon binding, HTRF IC50)
# Experimental: Compound activity was monitored in a Homogenous Time-Resolved Fluorescence (HTRF) assay using 1-[5-({2-[2-(2-{[2-(2,6-dioxopiperidin-3-yl)-1,3-dioxo-2,3-dihydro-1H-isoindol-4-yl]oxy}acetamido)ethoxy]ethyl}carbamoyl)pentyl]-3,3-dimethyl-2-[(1E,3E)-5-[(2E)-1,3,3-trimethyl-5-sulfo-2,3-dihydro-1H-indol-2-ylidene]penta-1,3-dien-1-yl]-3H-indol-1-ium-5-sulfonate as a fluorescent probe. Biochemical assays were conducted in Greiner white 384 well HiBase plates (Cat. No 784075-25) in 10 μL total volume. A one pot detection solution of CRBN-DDB1 (2.5 nM), Anti-His Terbium Cryptate Gold (1×, PerkinElmer Cat. #: 61HI2TLB), and Cy5-Thalidomide (100 nM, Tenova Cat.: T52461) was prepared in 20 mM HEPES, 20 mM NaCl, 0.2 mM TCEP, 0.2 mM EDTA, and 0.005% Tween20 was dispensed to each assay plate. Compounds were stored in dry, ambient temperatures at 10 mM. A 10-point, 1:3 dilution series was prepared from 10 mM stock concentrations in Echo-compatible LDV plates. 10 nL of each compound dilution series was dispensed into assays wells using an Echo 650 (Labcyte inc. USA). 10 nL of 10 mM Lenalidomide was transferred into the active-control wells for the assay and 10 nL of DMSO was transferred into the neutral-control wells. The assay was then allowed to incubate for 30 min at ambient temperature after transferring compound. Plate measurements were taken on a Pherastar FSX (BMG Labtech, Germany) using the HTRF Red filter (Ex. 337 nm, em1: 620 nm, em2: 665 nm) (Flashes: 50, Integration time: 60-400 us, Z-height: 10 mm, Ratio-multiplier: 10,000). The HTRF signal was then subsequently normalized to the neutral and active controls. Analysis and IC50 values were derived using KNIME analytics (KNIME Zurich) transformation and fitting within Collaborative Drug Discovery (Collaborative Drug Discovery USA). Ki was derived from the geometric mean of the IC50 values using the Cheng-Prustoff transformation.
# (§1) In Table 2, each compound is assigned a class (HTRF class) indicating the ability for Cereblon binding by means of their HTRF IC50 values according to Example 3: A, B or C. According to the code, A represents an IC50 value of <100 nM, B represents an IC50 value>100 nM and <1000 nM, C represents an IC50 value>1000 nM. IF Class assigns each compound a code indicating the ability for GSPT1 degradation: A, B or C. According to the code, A represents a DC50 value of <30 nM, B represents a DC50 value>30 nM and <300 nM and C represents a DC50 value of >300 nM.
# [2] = target: T1, GSPT1 (Homo sapiens, UniProt P15170+Q96SW2); assay: Immunofluorescence assay for GSPT1 degradation in CAL-51 cells; format: cell-based; conditions: 6 h treatment, read-out: IF Class (GSPT1 degradation, DC50)
# T1 construct: CAL-51 cells were purchased from DSMZ (cat. Number ACC302); endogenous in cells; host or cells: CAL-51 (DSMZ ACC302)
# T1 sequence (P15170 whole entry): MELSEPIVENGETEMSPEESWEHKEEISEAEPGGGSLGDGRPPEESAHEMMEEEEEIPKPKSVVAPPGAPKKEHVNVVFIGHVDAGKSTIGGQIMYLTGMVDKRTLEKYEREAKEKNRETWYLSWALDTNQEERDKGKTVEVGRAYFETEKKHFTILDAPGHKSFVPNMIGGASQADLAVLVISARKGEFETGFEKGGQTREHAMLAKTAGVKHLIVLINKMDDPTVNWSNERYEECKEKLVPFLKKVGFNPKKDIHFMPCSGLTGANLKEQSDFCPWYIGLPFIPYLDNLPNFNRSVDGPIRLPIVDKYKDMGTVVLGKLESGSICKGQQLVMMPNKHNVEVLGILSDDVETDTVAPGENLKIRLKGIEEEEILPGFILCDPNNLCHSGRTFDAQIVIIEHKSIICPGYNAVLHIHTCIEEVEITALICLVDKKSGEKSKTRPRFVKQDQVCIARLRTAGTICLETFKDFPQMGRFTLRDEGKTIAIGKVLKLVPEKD
# T1 sequence (Q96SW2 whole entry): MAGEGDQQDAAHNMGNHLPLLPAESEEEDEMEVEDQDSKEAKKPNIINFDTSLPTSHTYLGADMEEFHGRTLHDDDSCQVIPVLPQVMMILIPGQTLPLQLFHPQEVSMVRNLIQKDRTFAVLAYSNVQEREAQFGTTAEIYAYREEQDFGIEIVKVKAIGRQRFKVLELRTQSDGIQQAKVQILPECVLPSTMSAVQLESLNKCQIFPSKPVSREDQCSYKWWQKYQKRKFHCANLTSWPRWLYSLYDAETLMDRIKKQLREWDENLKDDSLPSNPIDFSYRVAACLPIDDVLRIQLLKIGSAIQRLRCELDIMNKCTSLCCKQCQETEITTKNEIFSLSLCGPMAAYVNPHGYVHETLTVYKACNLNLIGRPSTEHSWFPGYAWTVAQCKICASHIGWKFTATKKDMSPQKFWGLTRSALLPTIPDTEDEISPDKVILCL
# T1 sequence (Q16531 2-1140 partner limits assumed): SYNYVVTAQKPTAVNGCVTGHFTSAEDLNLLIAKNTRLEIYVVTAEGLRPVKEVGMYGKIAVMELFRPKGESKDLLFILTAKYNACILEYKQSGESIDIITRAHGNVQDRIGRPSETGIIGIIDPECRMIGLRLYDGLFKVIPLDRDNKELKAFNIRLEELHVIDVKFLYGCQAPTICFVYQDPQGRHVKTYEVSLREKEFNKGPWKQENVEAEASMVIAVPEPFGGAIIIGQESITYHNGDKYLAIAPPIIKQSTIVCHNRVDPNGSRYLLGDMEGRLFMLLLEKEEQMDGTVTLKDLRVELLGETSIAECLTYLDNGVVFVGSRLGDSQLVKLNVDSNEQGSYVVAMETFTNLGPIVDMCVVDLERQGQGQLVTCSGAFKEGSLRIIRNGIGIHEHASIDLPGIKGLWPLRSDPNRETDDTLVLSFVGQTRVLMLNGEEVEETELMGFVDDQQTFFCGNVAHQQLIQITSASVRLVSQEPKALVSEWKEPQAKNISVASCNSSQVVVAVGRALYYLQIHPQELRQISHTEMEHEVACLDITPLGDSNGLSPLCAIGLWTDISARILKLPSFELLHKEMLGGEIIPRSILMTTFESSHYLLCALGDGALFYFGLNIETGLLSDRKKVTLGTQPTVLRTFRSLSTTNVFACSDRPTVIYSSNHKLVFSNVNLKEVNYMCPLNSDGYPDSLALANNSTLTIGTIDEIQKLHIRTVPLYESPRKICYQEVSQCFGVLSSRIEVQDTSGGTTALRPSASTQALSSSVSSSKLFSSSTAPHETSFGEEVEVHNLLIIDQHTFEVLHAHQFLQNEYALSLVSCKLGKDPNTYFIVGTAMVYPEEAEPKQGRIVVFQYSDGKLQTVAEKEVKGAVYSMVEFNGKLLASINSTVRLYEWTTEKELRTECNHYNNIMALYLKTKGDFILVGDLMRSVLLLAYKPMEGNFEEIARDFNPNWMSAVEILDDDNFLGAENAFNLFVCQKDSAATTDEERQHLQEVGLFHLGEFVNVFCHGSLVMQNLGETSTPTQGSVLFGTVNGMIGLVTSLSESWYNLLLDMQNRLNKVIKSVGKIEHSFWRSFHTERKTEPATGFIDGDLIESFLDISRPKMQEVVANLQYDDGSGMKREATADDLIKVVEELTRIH
# Experimental: The representative compounds were tested in an immunofluorescence assay for their activity to degrade GSPT1. CAL-51 cells were purchased from DSMZ (cat. Number ACC302), sub-cultured in 90% Dulbecco's MEM (4.5 g/L glucose, Gibco 11965)+10% heat inactivated FBS (BioConcept, 2-01F136I) and incubated at 37° C., 5% CO2. For the assay imaging microtiter plate Cell Carrier 96 Ultra (Perkin Elmer 6055302) were pre-coated with Fibronectin (Sigma F085, 30 μl at 0.2 μg/mL) in PBS (100 μL, Gibco 14190) for 45 min at room temperature, rinsed with PBS and CAL-51 cells (30K cells/well) were plated and let to adhere overnight. Cells were treated with compounds typically using a serial dilution ranging from 30 μM to 0.1 nM for 6 h. Compounds were stored at 10 mM DMSO stocks. Vehicle (DMSO), positive (CC-885, 10 μM) and rescue controls (positive control plus 0.2 μM bortezomib) were also included at this stage. Cells were subsequently rinsed with PBS and fixed in 10% Formalin solution (50 μl, Sigma HT5011)) for 20 min at room temperature. Following three consecutive PBS washes (100 μL), cells were permeabilized in 0.1% Triton X-100 in PBS (Sigma 93443, 50 μl) for 15 min at room temperature. Following three further PBS washes, 50 μl blocking buffer (1% BSA, Sigma A4503, in PBS) was added for 45 min for signal-to noise reduction. Primary antibody (human GSPT1, Sigma HPA052488) was diluted in blocking buffer (dil.1/300, 35 μL/well) and incubated with the cells overnight at 4° C. After three PBS washes, Alexa-fluor 488 coupled secondary antibodies (Invitrogen, A32731, dil.1/1000), Alexa-fluor 647-Phalloidin (Invitrogen, A22287, dil.1/200) and DAPI (Thermo, #62248, dil.1/1000) were diluted in blocking buffer and incubated with the samples for 2 h at room temperature. After three final PBS washes, samples were conserved in 100 μL PBS in the dark, until measurement. Image acquisition was performed on the Operetta High-Content Imager (Perkin-Elmer). Fluorescence intensity of […] (GSPT1), Alexa-Fluor 647 (Actin) and DAPI (Nucleus) were measured. For the determination of GSPT1 DC50 values, a custom algorithm implemented in the PerkinElmer image analysis software Harmony-Acapella® was developed. After user-defined setting of adjustment parameters, the analysis was run identically without human intervention for all image fields. DAPI staining of the nuclei was used to determine the location of cells using standard nuclei detection modules. Segmentation artifacts were removed by threshold-based filters for area, roundness and intensity. The outline of the cells was determined analogously from the sum of the normalized, smoothed DAPI and Actin channel, starting from each nucleus. The Alexa-Fluor 488 (GSPT1) signal intensity in each cell was finally measured, in order to obtain a Mean intensity per cell. GSPT1 degradation (DC50) was calculated after normalization to controls and data import in CDD vault Database, using non-linear regression.
# as §1
# Chain of CRBN-DDB1 (Q96SW2 whole entry): as the sequence (Q96SW2 whole entry) above
# Chain of CRBN-DDB1 (Q16531 whole entry partner): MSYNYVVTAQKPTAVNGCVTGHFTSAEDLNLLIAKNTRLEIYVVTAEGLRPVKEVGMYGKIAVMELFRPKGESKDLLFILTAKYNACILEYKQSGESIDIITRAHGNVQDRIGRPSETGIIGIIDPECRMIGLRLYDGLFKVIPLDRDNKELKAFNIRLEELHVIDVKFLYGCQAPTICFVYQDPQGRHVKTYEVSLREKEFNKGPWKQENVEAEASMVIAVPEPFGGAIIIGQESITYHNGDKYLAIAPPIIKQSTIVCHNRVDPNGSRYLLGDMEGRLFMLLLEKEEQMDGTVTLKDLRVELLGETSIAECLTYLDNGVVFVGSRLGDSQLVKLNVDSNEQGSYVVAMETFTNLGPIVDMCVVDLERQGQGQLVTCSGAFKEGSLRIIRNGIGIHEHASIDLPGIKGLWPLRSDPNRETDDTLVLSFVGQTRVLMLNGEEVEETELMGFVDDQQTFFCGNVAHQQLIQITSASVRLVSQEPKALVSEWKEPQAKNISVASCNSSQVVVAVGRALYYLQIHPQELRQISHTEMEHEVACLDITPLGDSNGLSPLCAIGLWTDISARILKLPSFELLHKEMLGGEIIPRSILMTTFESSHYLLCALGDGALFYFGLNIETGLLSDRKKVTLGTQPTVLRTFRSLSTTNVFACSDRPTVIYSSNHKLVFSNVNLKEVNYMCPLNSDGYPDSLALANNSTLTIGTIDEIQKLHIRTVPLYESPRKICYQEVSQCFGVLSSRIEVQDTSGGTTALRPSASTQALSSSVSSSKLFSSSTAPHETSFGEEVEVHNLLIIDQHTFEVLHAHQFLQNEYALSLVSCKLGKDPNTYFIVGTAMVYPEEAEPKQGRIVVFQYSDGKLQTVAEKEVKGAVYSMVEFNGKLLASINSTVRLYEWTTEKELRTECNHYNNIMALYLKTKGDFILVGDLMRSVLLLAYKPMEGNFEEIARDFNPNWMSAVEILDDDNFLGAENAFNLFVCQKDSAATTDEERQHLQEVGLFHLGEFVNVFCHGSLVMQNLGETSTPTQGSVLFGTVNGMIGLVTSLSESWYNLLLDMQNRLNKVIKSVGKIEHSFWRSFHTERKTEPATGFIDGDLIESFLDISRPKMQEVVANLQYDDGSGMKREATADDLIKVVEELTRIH
Structure (SMILES),IC50 [1],DC50 [2]
"Cc1cc(Cl)ccc1CC(=O)NC1CN(c2cc(F)c(C3CCC(=O)NC3=O)c(F)c2)C1 (stereo not drawn) [Compound 52, 2-(4-chloro-2-methylphenyl)-N-(1-(4-(2,6-dioxopiperidin-3-yl)-3,5-difluorophenyl)azetidin-3-yl)acetamide]",100 to 1000 nM,30 to 300 nM
"Cc1cc(NC(=O)CC2CN(c3cc(F)c(C4CCC(=O)NC4=O)c(F)c3)C2)ccc1Cl (stereo not drawn) [Compound 3, N-(4-chloro-3-methylphenyl)-2-(1-(4-(2,6-dioxopiperidin-3-yl)-3,5-difluorophenyl)azetidin-3-yl)acetamide]",100 to 1000 nM,< 30 nM
"Cc1ccc(NC(=O)CC2CN(c3cc(F)c(C4CCC(=O)NC4=O)c(F)c3)C2)cc1Cl (stereo not drawn) [Compound 40, N-(3-chloro-4-methylphenyl)-2-(1-(4-(2,6-dioxopiperidin-3-yl)-3,5-difluorophenyl)azetidin-3-yl)acetamide]",> 1000 nM,< 30 nM
"O=C1CCC(c2ccc(N3CC(NC(=O)Cc4ccc(Cl)cc4)C3)cc2Cl)C(=O)N1 (stereo not drawn) [Compound 34, N-(1-(3-chloro-4-(2,6-dioxopiperidin-3-yl)phenyl)azetidin-3-yl)-2-(4-chlorophenyl)acetamide]",–,> 300 nM
"O=C1CCC(c2c(F)cc(N3CC(NC(=O)Cc4ccc(C5CCC5)cc4)C3)cc2F)C(=O)N1 (stereo not drawn) [Compound 20, 2-(4-cyclobutylphenyl)-N-(1-(4-(2,6-dioxopiperidin-3-yl)-3,5-difluorophenyl)azetidin-3-yl)acetamide]",100 to 1000 nM,> 300 nM
"Cc1c(Cl)cc(CC(=O)NC2CN(c3cc(F)c(C4CCC(=O)NC4=O)c(F)c3)C2)cc1CN1CCOCC1 (stereo not drawn) [Compound 18, 2-(3-chloro-4-methyl-5-(morpholinomethyl)phenyl)-N-(1-(4-(2,6-dioxopiperidin-3-yl)-3,5-difluorophenyl)azetidin-3-yl)acetamide]",100 to 1000 nM,< 30 nM
"Cc1cc(CC(=O)NC2CN(c3cc(F)c(C4CCC(=O)NC4=O)c(F)c3)C2)cc(C)n1 (stereo not drawn) [Compound 49, 2-(2,6-dimethylpyridin-4-yl)-N-(1-(4-(2,6-dioxopiperidin-3-yl)-3,5-difluorophenyl)azetidin-3-yl)acetamide]",100 to 1000 nM,> 300 nM
"N#Cc1ccc(CC(=O)NC2CN(c3cc(F)c(C4CCC(=O)NC4=O)c(F)c3)C2)c(Cl)c1 (stereo not drawn) [Compound 1, 2-(2-chloro-4-cyanophenyl)-N-(1-(4-(2,6-dioxopiperidin-3-yl)-3,5-difluorophenyl)azetidin-3-yl)acetamide]",100 to 1000 nM,> 300 nM
"O=C1CCC(c2ccc(N3CC(NC(=O)C(F)(F)c4ccc(Cl)cc4)C3)cc2Cl)C(=O)N1 (stereo not drawn) [Compound 35, N-(1-(3-chloro-4-(2,6-dioxopiperidin-3-yl)phenyl)azetidin-3-yl)-2-(4-chlorophenyl)-2,2-difluoroacetamide]",–,> 300 nM
"Cc1cc(CC(=O)NC2CN(c3cc(F)c(C4CCC(=O)NC4=O)c(F)c3)C2)ncc1Cl (stereo not drawn) [Compound 22, 2-(5-chloro-4-methylpyridin-2-yl)-N-(1-(4-(2,6-dioxopiperidin-3-yl)-3,5-difluorophenyl)azetidin-3-yl)acetamide]",100 to 1000 nM,> 300 nM
"O=C1CCC(c2c(F)cc(N3CC(NC(=O)Cc4ccc(Cl)cc4)C3)cc2F)C(=O)N1 (stereo not drawn) [Compound 36, 2-(4-chlorophenyl)-N-(1-(4-(2,6-dioxopiperidin-3-yl)-3,5-difluorophenyl)azetidin-3-yl)acetamide]",100 to 1000 nM,> 300 nM
"N#Cc1ccc(CC(=O)NC2CN(c3cc(F)c(C4CCC(=O)NC4=O)c(F)c3)C2)c(F)c1 (stereo not drawn) [Compound 47, 2-(4-cyano-2-fluorophenyl)-N-(1-(4-(2,6-dioxopiperidin-3-yl)-3,5-difluorophenyl)azetidin-3-yl)acetamide]",100 to 1000 nM,> 300 nM
"Cc1cc(F)c(NC(=O)CC2CN(c3cc(F)c(C4CCC(=O)NC4=O)c(F)c3)C2)cc1Cl (stereo not drawn) [Compound 5, N-(5-chloro-2-fluoro-4-methylphenyl)-2-(1-(4-(2,6-dioxopiperidin-3-yl)-3,5-difluorophenyl)azetidin-3-yl)acetamide]",100 to 1000 nM,< 30 nM
"O=C1CCC(c2c(F)cc(N3CC(CC(=O)Nc4cc(F)cc(OC(F)F)c4)C3)cc2F)C(=O)N1 (stereo not drawn) [Compound 45, N-(3-(difluoromethoxy)-5-fluorophenyl)-2-(1-(4-(2,6-dioxopiperidin-3-yl)-3,5-difluorophenyl)azetidin-3-yl)acetamide]",–,> 300 nM
"Cc1c(Cl)cc(NC(=O)CC2CN(c3cc(F)c(C4CCC(=O)NC4=O)c(F)c3)C2)cc1CN1CCOCC1 (stereo not drawn) [Compound 38, N-(3-chloro-4-methyl-5-(morpholinomethyl)phenyl)-2-(1-(4-(2,6-dioxopiperidin-3-yl)-3,5-difluorophenyl)azetidin-3-yl)acetamide]",–,< 30 nM
"O=C1CCC(c2c(F)cc(N3CC(NC(=O)C(F)(F)c4ccc(Cl)cc4)C3)cc2F)C(=O)N1 (stereo not drawn) [Compound 37, 2-(4-chlorophenyl)-N-(1-(4-(2,6-dioxopiperidin-3-yl)-3,5-difluorophenyl)azetidin-3-yl)-2,2-difluoroacetamide]",–,> 300 nM
"O=C1CCC(c2c(F)cc(N3CC(NC(=O)c4cc(Cl)ccc4F)C3)cc2F)C(=O)N1 (stereo not drawn) [Compound 46, 5-chloro-N-(1-(4-(2,6-dioxopiperidin-3-yl)-3,5-difluorophenyl)azetidin-3-yl)-2-fluorobenzamide]",100 to 1000 nM,–
"N#Cc1cc(Cl)cc(CC(=O)NC2CN(c3cc(F)c(C4CCC(=O)NC4=O)c(F)c3)C2)c1 (stereo not drawn) [Compound 44, 2-(3-chloro-5-cyanophenyl)-N-(1-(4-(2,6-dioxopiperidin-3-yl)-3,5-difluorophenyl)azetidin-3-yl)acetamide]",–,30 to 300 nM
"O=C1CCC(c2c(F)cc(N3CC(CC(=O)Nc4cccc(OC(F)(F)F)c4)C3)cc2F)C(=O)N1 (stereo not drawn) [Compound 39, 2-(1-(4-(2,6-dioxopiperidin-3-yl)-3,5-difluorophenyl)azetidin-3-yl)-N-(3-(trifluoromethoxy)phenyl)acetamide]",–,30 to 300 nM
